From PMC9416745, “The Effect of 1,2,4-Triazole-3-thiol Derivatives Bearing Hydrazone Moiety on Cancer Cell Migration and Growth of Melanoma, Breast, and Pancreatic Cancer Spheroids” (Pharmaceuticals, 2022)

How the values were obtained:
[1] = test system: IGR39, MDA-MB-231 and Panc-1 tumour spheroids; assay: 3D cell cultures (spheroids), stated for all three spheroid types; type: cell-based, human; settings: 10 µM, 8 days of incubation
Method: (§1) Cancer cell spheroids were formed using the magnetic 3D Bioprinting method, as described elsewhere. Briefly, melanoma IGR39, triple-negative breast cancer MDA-MB-231 cells, pancreatic cancer Panc-1 cells, and human fibroblasts at 70% confluency in a 6-well plate were incubated with Nanoshuttle (n3D Biosciences, Inc., Houston, TX, USA) for 8 h at 37°C in a humidified atmosphere containing 5% CO2. Then cells were trypsinized, centrifuged, and seeded into an ultra-low attachment 96-well plate in a volume of 100 µL (1.5 × 10^3 cancer cells and 1.5 × 10^3 human fibroblasts/well). The plate was placed on a magnetic drive and incubated for 2 days at 37°C in a humidified atmosphere containing 5% CO2. Then the fresh medium containing 10 µM of the tested compound was added to the wells. Spheroids were captured every two days using the Olympus IX73 inverted microscope (OLYMPUS CORPORATION, Tokyo, Japan). Quantitative analysis of compound anticancer activity in spheroids was performed using ImageJ, version 1.53o (National Institutes of Health, USA) and Microsoft Office Excel 2016 software (Microsoft Corporation, Redmond, WA, USA).
(§2) On the last day of incubation, 10 µL of WST-1 reagent (Sigma-Aldrich Co, St. Louis, MO, USA) was added to each well with spheroids. After 10 h of incubation, 50 µL of liquid from each well were transferred to the new 96-well plate and the absorbance was measured at 460 and 530 nm using a multi-detection microplate reader. Spheroid cell viability was calculated using a formula provided in Section 3.2.2.

melanoma IGR39 spheroids = assay: 3D cell cultures (spheroids), IGR39; type: cell-based, human; settings: 10 µM, 8 days of incubation
Method: as §1, §2

[2] = test system: IGR39, MDA-MB-231 and Panc-1 cell migration; assay: 'Wound healing' cell migration assay, stated for all tested cell lines; type: cell-based, human; settings: 10 µM, compared to the control
Method: (§3) Briefly, melanoma IGR39, human triple-negative breast cancer MDA-MB-231, and pancreatic carcinoma Panc-1 cells were seeded in 24-well plates at a density of 6 × 10^4 cells/well and incubated for 48 h in previously described cell culture medium at 37°C in a humidified atmosphere containing 5% CO2. Then the scratch was made using a 100 µL pipette tip. Cells were washed once with PBS, and the fresh medium containing 10 µM of compounds 4, 7, 8, 10, 14, 17, and 18 was added. Medium containing 0.1% DMSO was used as a negative control. Cells were incubated at 37 °C in a humidified atmosphere containing 5% CO2.
(§4) The ‘Wounds’ were captured at the intervals of 0 h, 24 h, 48 h and 72 h (only for the Panc-1 cell line) from scratch under the phase contrast microscope at a 4× magnification. The wound area was analysed using the ImageJ program (National Institute of Health, Bethesda, MD, USA).

[3] = test system: human malignant melanoma cell line IGR39; assay: MTT cell viability assay, IGR39; type: cell-based; settings: 50 µM, 72 h
Method: (§5) The effect of synthesized compounds on cell viability was studied using 3-(4,5-dimethylthiazol-2-yl)-2,5-diphenyltetrazolium bromide (MTT; Sigma-Aldrich Co., St Louis, MO, USA) assay, as described elsewhere. Briefly, IGR39, MDA-MB-231, Panc-1, and HF cells were seeded in 96-well plates (Corning) in triplicate at a volume of 100 μL (IGR39, MDA-MB-231 and Panc-1: 4 × 10^3 cells/well; HF: 5 × 10^3 cells/well). After 24 h, cells were treated with 50 μM of tested compounds. After 72 h, the MTT reagent was added and cells were incubated for 4 h. Then the medium was aspirated, and the formed formazan crystals were dissolved in 100 μL DMSO (Sigma-Aldrich Co., St. Louis, MO, USA). The absorbance was measured at 570 and 630 nm using a multi-detection microplate reader. The compound effect on cell viability was calculated using the formula:(1) Relative cell viability (%)=A−A0/ANC−A0 where
(§6) • A—mean of absorbance of the tested compound, • A0—mean of absorbance of blank (no cells, positive control), and • ANC—mean of absorbance of negative control (only cells, no treatment).
(§7) The compound serial dilutions from 50 µM to 1.56 µM were made in a medium and added to the cells in triplicates. The EC50 value representing the concentration of a compound causing 50% reduction of cancer cell metabolic activity was calculated using the Hill equation.

Panc-1 cells = assay: MTT, effect of 10 µM compound on Panc-1 cell viability (Procedure S1); type: cell-based; settings: Homo sapiens, after 72 h
Method: (§8) The ‘Wound healing’ assay was used to evaluate compound activity on cell migration. […] The effect of this concentration on cell viability after 24 h, 48 h and 72 h was studied in separate experiments (Figures S58–60) using the MTT assay (the procedure is described in Supplementary Materials).
(§9) Procedure S1. Evaluation of 10 µM compound concentration effect on cell line viability.
(§10) The effect of 10 µM compounds on cell viability was studied using 3-(4,5-dimethylthiazol-2-yl)-2,5-diphenyltetrazolium bromide (MTT; Sigma-Aldrich Co., St Louis, MO, USA) assay. IGR39, MDA-MB-231, and Panc-1 cells were seeded in 96-well plates (Corning) in triplicates at a volume of 100 µL at 4 × 10^3 cells/well). After 24 h, the cells were treated with 10 µM of compounds 4, 7, 8, 10, 14, 17, and 18. After 24 h, 48 h and 72 h (only Panc-1 cells), the MTT reagent has been added and cells were incubated for 4 h. Then the medium was aspirated, and the formed formazan crystals were dissolved in 100 µL DMSO (Sigma-Aldrich Co., St. Louis, MO, USA). The absorbance was measured at 570 and 630 nm using a multi-detection microplate reader. Compound effect on cell viability was calculated according to a formula:
(§11) Relative cell viability ሺ%ሻ = A− A଴
(§12) A – mean of absorbance of tested compound, A0 – mean of absorbance of blank (no cells, positive control), ANC – mean of absorbance of negative control (only cells, no treatment).

[4] = test system: IGR39, MDA-MB-231 and Panc-1 cell lines; assay: MTT cell viability assay, result stated for all tested cancer cell lines together; type: cell-based, human; settings: 72 h; for EC50: Homo sapiens, range over cancer cell lines, read-out: EC50 values against the tested cancer cell lines (range)
Method: as §5, §6, §7

[5] = test system: human triple-negative breast cancer MDA-MB-231; assay: MTT cell viability assay, MDA-MB-231; type: cell-based; settings: 50 µM, 72 h
Method: as §5, §6, §7

IGR39 cells = assay: MTT, effect of 10 µM compound on IGR39 cell viability (Procedure S1); type: cell-based; settings: Homo sapiens, IGR-39, after 48 h of incubation
Method: as §8, §9, §10, §11, §12

[6] = test system: MDA-MB-231 cell migration; assay: 'Wound healing' cell migration assay, MDA-MB-231; type: cell-based, human; settings: 10 µM, both after 24 h and 48 h of incubation
Method: as §3, §4

melanoma A375 cell = test system: melanoma A375 cell; design: method as in PMID 21700700; settings: cited from earlier work
melanoma cell = test system: melanoma cell; design: method as in PMID 27572607; settings: cited from earlier work

SMILES | activity in 3D cell cultures (spheroids) [1] | melanoma IGR39 spheroid growth (melanoma IGR39 spheroids) | melting point [°C] | viability at 10 µM (Panc-1 cells) [%] | EC50 [4] [µM] | viability at 10 µM (IGR39 cells) [%] | MDA-MB-231 cell migration [6] | other results
O=C(CSc1nnc(CCNc2ccccc2)n1-c1ccccc1)NN=C1C(=O)Nc2ccccc21 [Compound 4, N′-(2-oxoindolin-3-ylidene)-2-((4-phenyl-5-(2-(phenylamino)ethyl)-4H-1,2,4-triazol-3-yl)thio)acetohydrazide] | most active | mostly inhibited | 252 to 253 | 74.3 ± 3.4 | 2 to 17 | – | – | effect on cell migration [2]: did not possess activity; selectivity against the melanoma IGR39 cell line (screening) [3]: moderate selectivity
O=C(CSc1nnc(CCNc2ccccc2)n1-c1ccccc1)NN=Cc1ccc[nH]1 [Compound 14, N′-((1H-pyrrol-2-yl)methylene)-2-((4-phenyl-5-(2-(phenylamino)ethyl)-4H-1,2,4-triazol-3-yl)thio)acetohydrazide] | most active | mostly inhibited | 215 to 216 | – | 2 to 17 | 67.9 ± 1.8 | migrated slower | activity against the IGR39 cell line (screening) [3]: least active; activity towards the triple-negative breast cancer cell line (screening) [5]: relatively higher activity
O=C(CSc1nnc(CCNc2ccccc2)n1-c1ccccc1)NN=Cc1ccccc1O [Compound 17, N′-(2-hydroxybenzylidene)-2-((4-phenyl-5-(2-(phenylamino)ethyl)-4H-1,2,4-triazol-3-yl)thio)acetohydrazide] | most active | began to disintegrate | – | 79.7 ± 3.8 | – | 76 ± 7.2 | migrated slower | activity against all tested cancer cell lines (screening) ([4]; 50 µM): most active
CN(C)/N=N/c1[nH]cnc1C(N)=O [Dacarbazine] | – | – | – | – | – | – | – | concentrations inhibiting melanoma A375 cell proliferation (melanoma A375 cell): 25 to 100 µM
CC(C)(C)c1nc(-c2cccc(NS(=O)(=O)c3c(F)cccc3F)c2F)c(-c2ccnc(N)n2)s1 [dabrafenib] | – | – | – | – | – | – | – | concentration reducing melanoma cell viability (melanoma cell): nanomolar
